According to ChEMBL document CHEMBL3399937, “(18)F-AmBF3-MJ9: a novel radiofluorinated bombesin derivative for prostate cancer imaging” (Bioorg Med Chem, 2015):

Molecular target: Gastrin-releasing peptide receptor (Rattus norvegicus) (UniProt P52500)
Experiment: Binding affinity to rat pancreatic acini GRPR

Gastrin-releasing peptide receptor (Rattus norvegicus), sequence (P52500 whole entry): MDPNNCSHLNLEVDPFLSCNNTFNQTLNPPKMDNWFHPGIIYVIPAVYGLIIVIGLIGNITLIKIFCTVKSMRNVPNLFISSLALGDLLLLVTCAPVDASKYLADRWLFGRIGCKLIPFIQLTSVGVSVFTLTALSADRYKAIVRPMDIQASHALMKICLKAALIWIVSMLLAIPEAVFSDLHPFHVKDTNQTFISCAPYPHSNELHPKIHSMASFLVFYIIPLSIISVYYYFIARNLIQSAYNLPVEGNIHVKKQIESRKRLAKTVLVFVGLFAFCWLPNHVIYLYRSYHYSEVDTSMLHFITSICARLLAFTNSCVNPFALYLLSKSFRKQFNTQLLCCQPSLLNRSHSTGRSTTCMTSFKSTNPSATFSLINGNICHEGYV

SMILES: CC(C)C[C@H](NC(=O)C[C@H](O)[C@H](CC(C)C)NC(=O)[C@H](Cc1cnc[nH]1)NC(=O)CNC(=O)[C@@H](NC(=O)[C@H](C)NC(=O)[C@H](Cc1c[nH]c2ccccc12)NC(=O)[C@H](CCC(N)=O)NC(=O)[C@H](N)Cc1ccccc1)C(C)C)C(N)=O
- Activity: 0.9 nM
